By IC50 is commonly meant the concentration that gives 50% inhibition.

The structures appear in SMILES notation.

The test system of one test is MCF7. In words: Cytotoxicity against human MCF7 cells by SRB method. It is filed as functional, cell-based.
In the case of `C[C@@H]1NC(=O)[C@H](Cc2c[nH]c3ccccc23)NC1=O`, the IC50 was above 100 µM.
On the same count and under the same terms, under `O=C1N[C@@H](Cc2c[nH]c3ccccc23)C(=O)N[C@H]1CO` stands above 100 µM; under `C[C@H]1C(=O)N[C@@H](Cc2c[nH]c3ccccc23)C(=O)N1C`, above 100 µM; under `CN1C(=O)[C@]23SSS[C@@]1(C)C(=O)N2[C@H]1Nc2ccccc2[C@]1(c1c[nH]c2ccccc12)[C@@H]3O`, 0.65 µM.
On the same count and under the same terms, under `CN1C(=O)[C@]23SS[C@@]1(C)C(=O)N2[C@H]1Nc2ccccc2[C@]1(c1c[nH]c2ccccc12)[C@@H]3O` stands 0.23 µM; under `CN1C(=O)[C@]23SSS[C@]1(CO)C(=O)N2[C@H]1Nc2ccccc2[C@@]1(c1c[nH]c2ccccc12)[C@@H]3O`, 0.91 µM; under `CS[C@]1(Cc2c[nH]c3ccccc23)NC(=O)[C@](CO)(SC)N(C)C1=O` [CHETOSEMINUDIN B], above 100 µM.
The same measure, in the same setting: under `CS[C@]1(CO)NC(=O)[C@](Cc2c[nH]c3ccccc23)(SC)NC1=O` [CHETOSEMINUDIN C] stands above 100 µM; under `CN1C(=O)[C@@]23C[C@@]4(c5c[nH]c6ccccc56)c5ccccc5N[C@@H]4N2C(=O)[C@]1(CO)SS3` [LUTEOALBUSIN A], 0.23 µM; under `CN1C(=O)[C@@]23C[C@@]4(c5c[nH]c6ccccc56)c5ccccc5N[C@@H]4N2C(=O)[C@]1(CO)SSS3` [LUTEOALBUSIN B], 0.25 µM.

The next test concerns HepG2. In words: Cytotoxicity against human HepG2 cells by SRB method. In kind it is functional, cell-based.
In turn, `C[C@@H]1NC(=O)[C@H](Cc2c[nH]c3ccccc23)NC1=O` had an IC50 above 100 µM.
On the same count and under the same terms, under `O=C1N[C@@H](Cc2c[nH]c3ccccc23)C(=O)N[C@H]1CO` stands above 100 µM.
The same measure, in the same setting: under `C[C@H]1C(=O)N[C@@H](Cc2c[nH]c3ccccc23)C(=O)N1C` stands above 100 µM; under `CN1C(=O)[C@]23SSS[C@@]1(C)C(=O)N2[C@H]1Nc2ccccc2[C@]1(c1c[nH]c2ccccc12)[C@@H]3O`, 2.03 µM; under `CN1C(=O)[C@]23SS[C@@]1(C)C(=O)N2[C@H]1Nc2ccccc2[C@]1(c1c[nH]c2ccccc12)[C@@H]3O`, 0.53 µM.
Still for that read-out and setting: under `CN1C(=O)[C@]23SSS[C@]1(CO)C(=O)N2[C@H]1Nc2ccccc2[C@@]1(c1c[nH]c2ccccc12)[C@@H]3O` stands 3.52 µM.
With `CS[C@]1(Cc2c[nH]c3ccccc23)NC(=O)[C@](CO)(SC)N(C)C1=O` [CHETOSEMINUDIN B], the IC50 was above 100 µM.
Same read-out and setting: under `CS[C@]1(CO)NC(=O)[C@](Cc2c[nH]c3ccccc23)(SC)NC1=O` [CHETOSEMINUDIN C] stands above 100 µM; under `CN1C(=O)[C@@]23C[C@@]4(c5c[nH]c6ccccc56)c5ccccc5N[C@@H]4N2C(=O)[C@]1(CO)SS3` [LUTEOALBUSIN A], 0.91 µM.
Still for that read-out and setting: under `CN1C(=O)[C@@]23C[C@@]4(c5c[nH]c6ccccc56)c5ccccc5N[C@@H]4N2C(=O)[C@]1(CO)SSS3` [LUTEOALBUSIN B] stands 1.29 µM.

A further test relates to SF-268. In words: Cytotoxicity against human SF268 cells by SRB method. In kind it is functional, cell-based.
For the molecule `C[C@@H]1NC(=O)[C@H](Cc2c[nH]c3ccccc23)NC1=O`, the IC50 was above 100 µM.
The molecule `O=C1N[C@@H](Cc2c[nH]c3ccccc23)C(=O)N[C@H]1CO` showed an IC50 above 100 µM.
In the case of `C[C@H]1C(=O)N[C@@H](Cc2c[nH]c3ccccc23)C(=O)N1C`, the IC50 was above 100 µM.
The molecule `CN1C(=O)[C@]23SSS[C@@]1(C)C(=O)N2[C@H]1Nc2ccccc2[C@]1(c1c[nH]c2ccccc12)[C@@H]3O` returned an IC50 of 2.49 µM. This lies in the single-digit micromolar range.
Still for that read-out and setting: under `CN1C(=O)[C@]23SS[C@@]1(C)C(=O)N2[C@H]1Nc2ccccc2[C@]1(c1c[nH]c2ccccc12)[C@@H]3O` stands 0.73 µM; under `CN1C(=O)[C@]23SSS[C@]1(CO)C(=O)N2[C@H]1Nc2ccccc2[C@@]1(c1c[nH]c2ccccc12)[C@@H]3O`, 1.04 µM; under `CS[C@]1(Cc2c[nH]c3ccccc23)NC(=O)[C@](CO)(SC)N(C)C1=O` [CHETOSEMINUDIN B], above 100 µM.
On the same count and under the same terms, under `CS[C@]1(CO)NC(=O)[C@](Cc2c[nH]c3ccccc23)(SC)NC1=O` [CHETOSEMINUDIN C] stands above 100 µM; under `CN1C(=O)[C@@]23C[C@@]4(c5c[nH]c6ccccc56)c5ccccc5N[C@@H]4N2C(=O)[C@]1(CO)SS3` [LUTEOALBUSIN A], 0.46 µM.
In turn, `CN1C(=O)[C@@]23C[C@@]4(c5c[nH]c6ccccc56)c5ccccc5N[C@@H]4N2C(=O)[C@]1(CO)SSS3` [LUTEOALBUSIN B] had a concentration for half-maximal inhibition (IC50) of 0.59 µM.

The subject of a further test is NCI-H460. In words: Cytotoxicity against human NCI-H460 cells by SRB method. It is filed as functional, cell-based. Background: The SRB assay estimates cell density from bound dye.
In the case of `C[C@@H]1NC(=O)[C@H](Cc2c[nH]c3ccccc23)NC1=O`, the IC50 was above 100 µM.
On the same count and under the same terms, under `O=C1N[C@@H](Cc2c[nH]c3ccccc23)C(=O)N[C@H]1CO` stands above 100 µM; under `C[C@H]1C(=O)N[C@@H](Cc2c[nH]c3ccccc23)C(=O)N1C`, above 100 µM; under `CN1C(=O)[C@]23SSS[C@@]1(C)C(=O)N2[C@H]1Nc2ccccc2[C@]1(c1c[nH]c2ccccc12)[C@@H]3O`, 17.8 µM.
The same measure, in the same setting: under `CN1C(=O)[C@]23SS[C@@]1(C)C(=O)N2[C@H]1Nc2ccccc2[C@]1(c1c[nH]c2ccccc12)[C@@H]3O` stands 6.57 µM.
Molecule `CN1C(=O)[C@]23SSS[C@]1(CO)C(=O)N2[C@H]1Nc2ccccc2[C@@]1(c1c[nH]c2ccccc12)[C@@H]3O` yielded an IC50 of 5.6 µM.
The same measure, in the same setting: under `CS[C@]1(Cc2c[nH]c3ccccc23)NC(=O)[C@](CO)(SC)N(C)C1=O` [CHETOSEMINUDIN B] stands above 100 µM; under `CS[C@]1(CO)NC(=O)[C@](Cc2c[nH]c3ccccc23)(SC)NC1=O` [CHETOSEMINUDIN C], above 100 µM; under `CN1C(=O)[C@@]23C[C@@]4(c5c[nH]c6ccccc56)c5ccccc5N[C@@H]4N2C(=O)[C@]1(CO)SS3` [LUTEOALBUSIN A], 1.15 µM.
The same measure, in the same setting: under `CN1C(=O)[C@@]23C[C@@]4(c5c[nH]c6ccccc56)c5ccccc5N[C@@H]4N2C(=O)[C@]1(CO)SSS3` [LUTEOALBUSIN B] stands 1.31 µM.

These data come from ChEMBL document CHEMBL2203213, “Cytotoxic indole diketopiperazines from the deep sea-derived fungus Acrostalagmus luteoalbus SCSIO F457” (Bioorg Med Chem Lett, 2012).
